Data from PubChem BioAssay (NCI).
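Test compounds were applied to cells in 96-well plates for 48 hours at 5 doses. Definition used: TGI = concentration required for complete inhibition of growth.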

Assays:
Experiment in all cases: NCI anticancer screen, dose series, 48 h
[1] = tested on: 786-0 renal
[2] = tested on: A498 renal
[3] = tested on: A549 NSCLC
[4] = tested on: ACHN renal
[5] = tested on: BT-549 breast
[6] = tested on: CAKI-1 renal
[7] = tested on: COLO 205 colon
[8] = tested on: DU-145 prostate
[9] = tested on: EKVX NSCLC
[10] = tested on: HCT-116 colon
[11] = tested on: HCT-15 colon
[12] = tested on: HOP-62 NSCLC
[13] = tested on: HOP-92 NSCLC
[14] = tested on: HS 578T breast
[15] = tested on: HT29 colon
[16] = tested on: IGROV1 ovarian
[17] = tested on: K-562 leukemia
[18] = tested on: KM12 colon
[19] = tested on: LOX IMVI melanoma
[20] = tested on: M14 melanoma
[21] = tested on: MALME-3M melanoma
[22] = tested on: MCF7 breast
[23] = tested on: MDA-MB-231 breast
[24] = tested on: MDA-MB-435
[25] = tested on: MDA-N
[26] = tested on: MOLT-4 leukemia
[27] = tested on: NCI-H226 lung
[28] = tested on: NCI-H460 lung
[29] = tested on: NCI-H522 lung
[30] = tested on: NCI/ADR-RES ovarian
[31] = tested on: OVCAR-3 ovarian
[32] = tested on: OVCAR-4 ovarian
[33] = tested on: OVCAR-5 ovarian
[34] = tested on: OVCAR-8 ovarian
[35] = tested on: PC-3 prostate
[36] = tested on: RPMI-8226 leukemia
[37] = tested on: RXF 393 renal
[38] = tested on: SF-268 CNS
[39] = tested on: SF-295 CNS
[40] = tested on: SK-MEL-2 melanoma
[41] = tested on: SK-MEL-28 melanoma
[42] = tested on: SK-MEL-5 melanoma
[43] = tested on: SN12C renal
[44] = tested on: SNB-19 CNS
[45] = tested on: SNB-75 CNS
[46] = tested on: SR leukemia
[47] = tested on: T-47D breast
[48] = tested on: TK-10 renal
[49] = tested on: U251 CNS
[50] = tested on: UACC-257 melanoma
[51] = tested on: UACC-62 melanoma
[52] = tested on: UO-31 renal
[53] = tested on: HL-60(TB) leukemia
[54] = tested on: NCI-H23 lung
[55] = tested on: SK-OV-3 ovarian
[56] = tested on: SW-620 colon
[57] = tested on: CCRF-CEM leukemia
[58] = tested on: SF-539 CNS

NCCCN1CCN(c2ccccc2)CC1
TGI [1]: > 100 µM
TGI [2]: > 100 µM
TGI [3]: > 100 µM
TGI [4]: > 100 µM
TGI [5]: > 100 µM
TGI [6]: > 100 µM
TGI [7]: > 100 µM
TGI [8]: > 100 µM
TGI [9]: > 100 µM
TGI [10]: > 100 µM
TGI [11]: > 100 µM
TGI [12]: > 100 µM
TGI [13]: > 100 µM
TGI [14]: > 100 µM
TGI [15]: > 100 µM
TGI [16]: > 100 µM
TGI [17]: > 100 µM
TGI [18]: > 100 µM
TGI [19]: > 100 µM
TGI [20]: > 100 µM
TGI [21]: > 100 µM
TGI [22]: > 100 µM
TGI [23]: > 100 µM
TGI [24]: > 100 µM
TGI [25]: > 100 µM
TGI [26]: > 100 µM
TGI [27]: > 100 µM
TGI [28]: > 100 µM
TGI [29]: > 100 µM
TGI [30]: > 100 µM
TGI [31]: 87.7 µM
TGI [32]: > 100 µM
TGI [33]: > 100 µM
TGI [34]: > 100 µM
TGI [35]: > 100 µM
TGI [36]: > 100 µM
TGI [37]: > 100 µM
TGI [38]: > 100 µM
TGI [39]: > 100 µM
TGI [40]: > 100 µM
TGI [41]: > 100 µM
TGI [42]: > 100 µM
TGI [43]: > 100 µM
TGI [44]: > 100 µM
TGI [45]: > 100 µM
TGI [46]: > 100 µM
TGI [47]: > 100 µM
TGI [48]: > 100 µM
TGI [49]: > 100 µM
TGI [50]: > 100 µM
TGI [51]: > 100 µM
TGI [52]: > 100 µM

CN(C)CCNc1ccc(NCC[N+](C)(C)Cc2ccc([N+](=O)[O-])cc2)c2c1C(=O)c1ccccc1C2=O
TGI [1]: > 25 µM
TGI [2]: > 25 µM
TGI [3]: > 25 µM
TGI [4]: > 25 µM
TGI [5]: > 25 µM
TGI [6]: > 25 µM
TGI [7]: > 25 µM
TGI [8]: > 25 µM
TGI [9]: > 25 µM
TGI [10]: > 25 µM
TGI [53]: 13.6 µM
TGI [12]: > 25 µM
TGI [13]: > 25 µM
TGI [14]: > 25 µM
TGI [15]: > 25 µM
TGI [16]: > 25 µM
TGI [18]: > 25 µM
TGI [19]: > 25 µM
TGI [20]: > 25 µM
TGI [21]: > 25 µM
TGI [22]: > 25 µM
TGI [23]: > 25 µM
TGI [24]: > 25 µM
TGI [25]: > 25 µM
TGI [26]: > 25 µM
TGI [27]: > 25 µM
TGI [54]: > 25 µM
TGI [29]: > 25 µM
TGI [30]: > 25 µM
TGI [31]: > 25 µM
TGI [33]: > 25 µM
TGI [34]: > 25 µM
TGI [35]: > 25 µM
TGI [36]: > 25 µM
TGI [37]: > 25 µM
TGI [38]: > 25 µM
TGI [39]: > 25 µM
TGI [40]: > 25 µM
TGI [41]: > 25 µM
TGI [42]: > 25 µM
TGI [55]: > 25 µM
TGI [43]: > 25 µM
TGI [45]: > 25 µM
TGI [46]: > 25 µM
TGI [56]: > 25 µM
TGI [47]: > 25 µM
TGI [48]: > 25 µM
TGI [49]: > 25 µM
TGI [50]: > 25 µM
TGI [51]: > 25 µM
TGI [52]: > 25 µM

c1ccc2c(CC3NCCN3)cccc2c1
TGI [1]: > 100 µM
TGI [2]: > 100 µM
TGI [3]: > 100 µM
TGI [4]: > 100 µM
TGI [5]: > 100 µM
TGI [6]: > 100 µM
TGI [57]: > 100 µM
TGI [7]: > 100 µM
TGI [8]: > 100 µM
TGI [9]: > 100 µM
TGI [10]: > 100 µM
TGI [11]: > 100 µM
TGI [53]: > 100 µM
TGI [12]: > 100 µM
TGI [13]: > 100 µM
TGI [14]: > 100 µM
TGI [15]: > 100 µM
TGI [16]: > 100 µM
TGI [17]: > 100 µM
TGI [18]: > 100 µM
TGI [19]: > 100 µM
TGI [20]: > 100 µM
TGI [21]: > 100 µM
TGI [22]: > 100 µM
TGI [23]: > 100 µM
TGI [24]: > 100 µM
TGI [25]: > 100 µM
TGI [26]: > 100 µM
TGI [27]: > 100 µM
TGI [54]: > 100 µM
TGI [28]: > 100 µM
TGI [29]: > 100 µM
TGI [30]: > 100 µM
TGI [31]: > 100 µM
TGI [32]: > 100 µM
TGI [33]: > 100 µM
TGI [34]: > 100 µM
TGI [35]: > 100 µM
TGI [36]: > 100 µM
TGI [37]: > 100 µM
TGI [38]: > 100 µM
TGI [39]: > 100 µM
TGI [58]: > 100 µM
TGI [40]: > 100 µM
TGI [41]: > 100 µM
TGI [42]: > 100 µM
TGI [55]: > 100 µM
TGI [43]: > 100 µM
TGI [44]: > 100 µM
TGI [45]: > 100 µM
TGI [46]: > 100 µM
TGI [56]: > 100 µM
TGI [47]: > 100 µM
TGI [48]: > 100 µM
TGI [49]: > 100 µM
TGI [50]: > 100 µM
TGI [51]: > 100 µM

CN1CCN(CC(=O)N2c3ccccc3Sc3cc4ccccc4cc32)CC1
TGI [1]: 26.8 µM
TGI [2]: 27.9 µM
TGI [3]: 30.3 µM
TGI [4]: 30.3 µM
TGI [5]: 30.2 µM
TGI [6]: 26 µM
TGI [57]: 83.6 µM
TGI [7]: 36.2 µM
TGI [8]: 29.3 µM
TGI [9]: 25.5 µM
TGI [10]: 22.2 µM
TGI [11]: 34.7 µM
TGI [53]: 4.55 µM
TGI [12]: 33 µM
TGI [13]: 24.6 µM
TGI [14]: 28.3 µM
TGI [15]: 16.4 µM
TGI [16]: 32.8 µM
TGI [17]: 33.6 µM
TGI [18]: 31.8 µM
TGI [19]: 33.4 µM
TGI [20]: 29 µM
TGI [21]: 28.4 µM
TGI [22]: 31.6 µM
TGI [23]: 27.7 µM
TGI [24]: 23.7 µM
TGI [25]: 22.4 µM
TGI [26]: 28.4 µM
TGI [27]: 42.8 µM
TGI [54]: 40.1 µM
TGI [28]: 32.8 µM
TGI [29]: 31.9 µM
TGI [30]: 34.4 µM
TGI [31]: 26.1 µM
TGI [32]: 29.1 µM
TGI [33]: 29.8 µM
TGI [34]: 36.5 µM
TGI [35]: 27.6 µM
TGI [36]: 34.1 µM
TGI [37]: 27 µM
TGI [38]: 25.6 µM
TGI [39]: 28.3 µM
TGI [58]: 30.9 µM
TGI [40]: 31.9 µM
TGI [41]: 28.9 µM
TGI [42]: 34.7 µM
TGI [55]: 30.3 µM
TGI [43]: 25.2 µM
TGI [44]: 35.3 µM
TGI [45]: 27.8 µM
TGI [46]: 31.2 µM
TGI [56]: 50.9 µM
TGI [47]: 46.1 µM
TGI [48]: 29.5 µM
TGI [49]: 28.7 µM
TGI [50]: 24.5 µM
TGI [51]: 31.6 µM
TGI [52]: 26.7 µM

OCCCNCc1ccncc1
TGI [1]: > 100 µM
TGI [2]: > 100 µM
TGI [3]: > 100 µM
TGI [4]: > 100 µM
TGI [5]: > 100 µM
TGI [6]: > 100 µM
TGI [57]: > 100 µM
TGI [7]: > 100 µM
TGI [8]: > 100 µM
TGI [9]: > 100 µM
TGI [10]: > 100 µM
TGI [11]: > 100 µM
TGI [53]: > 100 µM
TGI [12]: > 100 µM
TGI [13]: > 100 µM
TGI [14]: > 100 µM
TGI [15]: > 100 µM
TGI [16]: > 100 µM
TGI [17]: > 100 µM
TGI [18]: > 100 µM
TGI [19]: > 100 µM
TGI [20]: > 100 µM
TGI [21]: > 100 µM
TGI [22]: > 100 µM
TGI [23]: > 100 µM
TGI [24]: > 100 µM
TGI [25]: > 100 µM
TGI [26]: > 100 µM
TGI [27]: > 100 µM
TGI [54]: > 100 µM
TGI [28]: > 100 µM
TGI [29]: > 100 µM
TGI [30]: > 100 µM
TGI [31]: > 100 µM
TGI [32]: > 100 µM
TGI [33]: > 100 µM
TGI [34]: > 100 µM
TGI [35]: > 100 µM
TGI [36]: > 100 µM
TGI [37]: > 100 µM
TGI [38]: > 100 µM
TGI [39]: > 100 µM
TGI [58]: > 100 µM
TGI [40]: > 100 µM
TGI [41]: > 100 µM
TGI [42]: > 100 µM
TGI [55]: > 100 µM
TGI [43]: > 100 µM
TGI [44]: > 100 µM
TGI [45]: > 100 µM
TGI [46]: > 100 µM
TGI [56]: > 100 µM
TGI [47]: > 100 µM
TGI [48]: > 100 µM
TGI [49]: > 100 µM
TGI [51]: > 100 µM
TGI [52]: > 100 µM
